Data published in patent US12612412B2, “Antiviral heterocyclic compounds” (Enanta Pharmaceuticals, Inc., priority 2021, dated 2026).
Like-named read-outs stand apart in the source and are kept apart here.

Assays:
[1] = system: genotype A, "Long" strain RSV; experiment: RSV-A assay (CPE protection in Hep-2 cells, ATPlite readout); format: cell-based, Human respiratory syncytial virus (HRSV); settings: human respiratory syncytial virus, MOI 0.1, CPE protection
In short: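 Protection from RSV-induced cytopathic effect measured by ATP content (ATPlite) after 5-day culture. Infection used genotype A Long virus at MOI 0.1 on 8,000 Hep-2 cells per well, with compound serially diluted 2-fold; values are EC50.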

[2] = system: HMPV clinical isolate TN/1501/A1; experiment: HMPV antiviral assay Method-B (clinical isolate TN/1501/A1 in LLC-MK2 cells, ATP-Lite readout); format: cell-based, Human metapneumovirus (HMPV); settings: human metapneumovirus, LLC-MK2, 144 h, hMPV WT1501 (clinical isolate TN/1501/A1), 6 days
Protocol: In vitro HMPV antiviral activity was evaluated using the clinical isolate TN/1501/A1 and LLC-MK2 cells (ATCC #CCL-7), an immortalized kidney epithelial cell line from Macaca mulatta. Compounds were resuspended in dimethyl sulfoxide (DMSO) at 10 mM and added to a 384-well source plate. The compounds were diluted and transferred onto 384-well assay plates using the Echo-650 automated liquid handling system (Beckman Coulter, Indiana). The test compounds were assessed in duplicate at a top concentration of 10 μM followed by 3-fold serial dilutions to give a total of 10 concentration points. DMSO control wells were also included on the assay plates and were either infected or not, acting as positive and negative controls. TN/1501/A1 virus infections were performed in-suspension with LLC-MK2 cells. The cells were washed twice with PBS and removed from the cell-culture flask with 0.25% trypsin-EDTA (Thermo Fisher Scientific, MA). The trypsin-EDTA was inactivated by resuspending in 2% fetal bovine serum (FBS) and OptiMEM (ThermoFisher Scientific, MA) containing 1% penicillin-streptomycin. Cells were pelleted by centrifuging for 5 minutes at 800 rpm, the supernatant was removed, and cells were suspended in PBS plus 100 μg/mL CaCl2). This step was performed twice. Cells were then resuspended in serum-free (SF)-OptiMEM containing 4 μg/mL TPCK-Trypsin (Sigma Aldrich, MO), 1% penicillin-streptomycin (ThermoFisher Scientific, MA) and 100 μg/mL CaCl2). Cells were counted and seeded at a density of 5,000 cells/well, 12.5 μL/well. Virus infections were done at a multiplicity of infection (MOI) of 0.014 with 12.5 μL added per well. SF-OptiMEM, 12.5 μL/well, was added to the appropriate wells to serve as a virus-free negative control for the assay. The final concentration of TPCK-trypsin was 2 μg/mL. Plates were incubated at 37° C., 5% CO2 for 6 days. After 6 days incubation, 12.5 μL of ATP-Lite (PerkinElmer, MA) was added to each well and the raw luminescence values were determined using the Envision 2104 (Perkin Elmer, MA). The average of the raw luminescence values for the cells and virus only positive control wells was subtracted from all conditions tested and the percent cell health was determined by dividing these values by the average of the cells only negative control wells. EC50 values were then calculated by non-linear regression using a four-parameter curve logistic equation. The curve fit model employed was XLFit Dose Response One Site Model 200: y=(A+(B/(1+((x/C)^D)))), where A is the minimum y value, B is the maximum y value, C is the log EC50 value, and D is the slope factor. […] EC50 ranges are as follows: A<0.5 μM; B>0.5 μM.

[3] = genotype A “Long” strain RSV, read-out: Human RSV-A (“Long”)
[4] = RSV-A Long strain, read-out: Human RSV-A (“Long”) EC50

EC50 [1, 3] [nM] | EC50 [2] [nM] | EC50 [1, 4] [nM] | Compound
< 200 | < 500 | – | COc1cc(C(=O)NC[C@](O)(c2cc3c(c(-c4cc(Cl)c(F)cc4F)n2)OC[C@]3(C)C(N)=O)C2(F)CC2)cc2cc(Br)cnc12 [Example 767]
– | < 500 | < 200 | COc1cc(C(=O)NC[C@](O)(c2cc3c(c(-c4c(F)ccc(Cl)c4F)n2)OC[C@]3(C)C(N)=O)C2CC2)cc2cn(C3(F)CC3)nc12 [Example 1165]
– | < 500 | < 200 | Cc1cnc2c(Cl)cc(C(=O)NC[C@](O)(c3cc4c(c(-c5cc(Br)c(F)cc5F)n3)OC[C@]4(C)C(N)=O)C3CC3)cc2c1 [Example 1093]
< 200 | < 500 | – | COc1cc(C(=O)NC[C@](O)(c2cc3c(c(-c4cc(F)c(F)cc4Cl)n2)OC[C@]3(C)C(N)=O)C2CC2)cc2cn(C3(F)CC3)nc12 [Example 659]
< 200 | < 500 | – | C[C@]1(C(N)=O)COc2c1cc([C@@](O)(CNC(=O)c1cc(Cl)c3nn(C4CC4)cc3c1)C1CC1)nc2-c1ccc(Cl)c(F)c1F [Example 686]
< 200 | < 500 | – | COc1cc(C(=O)NC[C@](O)(c2cc3c(c(-c4cc(Cl)c(F)cc4F)n2)OC[C@]3(C)C(N)=O)C2CC2)cc2cn(C(F)F)nc12 [Example 662]
< 200 | < 500 | – | COc1cc(C(=O)NC[C@](O)(c2cc3c(c(-c4ccc(Cl)c(F)c4F)n2)OC[C@]3(C)C(N)=O)C2CC2)cc2cc(Cl)c(C)nc12 [Example 687]
< 200 | < 500 | – | COc1cc(C(=O)NC[C@](O)(c2cc3c(c(-c4ccc(F)c(Cl)c4F)n2)OC[C@]3(C)C(N)=O)C2CC2)cc2cc(C(F)(F)F)cnc12 [Example 572]
– | < 500 | < 200 | C[C@]1(C(N)=O)COc2c1cc([C@@](O)(CNC(=O)c1cc(OC3CC3)c3nn(C4(F)CC4)cc3c1)C1CC1)nc2-c1ccc2c(c1)OC(F)(F)O2 [Example 846]
< 200 | < 500 | – | Cc1cnc2c(OCC(F)F)cc(C(=O)NC[C@](O)(c3cc4c(c(-c5ccc(F)c(Cl)c5)n3)OC[C@]4(C)C(N)=O)C(F)(F)F)cc2c1 [Example 497]
< 200 | < 500 | – | COc1cc(C(=O)NC[C@](O)(c2cc3c(c(-c4ccc(F)c(F)c4F)n2)OC[C@]3(C)C(N)=O)C2CC2)cc2cc(Cl)c(C)nc12 [Example 526]
– | < 500 | < 200 | COc1cc(C(=O)NC[C@](O)(c2cc3c(c(-c4ccc(F)c(Cl)c4)n2)OCC3(CF)C(N)=O)C(F)(F)F)cc2cn(C3CC3)nc12 (some centres unmarked) [Example 1050]
– | < 500 | < 200 | COc1cc(C(=O)NC[C@](O)(c2cc3c(c(-c4ccc5c(c4)OC(F)(F)O5)n2)OC[C@]3(C)C(N)=O)C2CC2)cc2cn(C3(Cl)CC3)nc12 [Example 838]
< 200 | < 500 | – | COc1cc(C(=O)NC[C@](O)(c2cc3c(c(-c4ccc(F)c(F)c4F)n2)OC[C@]3(C)C(N)=O)C2(F)CC2)cc2cn(C3CC3)nc12 [Example 729]
– | > 500 | < 200 | COc1cc(C(=O)NCC(O)(c2cc3c(c(-c4cnn(C)c4)n2)OC[C@]3(C)C(N)=O)C(F)(F)F)cc2cn(C3CC3)nc12 (some centres unmarked) [Example 903]
– | < 500 | < 200 | COc1cc(C(=O)NC[C@](O)(c2cc3c(c(-c4ccc5c(c4)OC(F)(F)O5)n2)OC[C@]3(C(N)=O)C(F)F)C2CC2)cc2cc(Cl)c(C)nc12 [Example 1014]
– | > 500 | > 200 | COc1cc(C(=O)NC[C@](O)(c2cc3c(c(-c4ccc(F)c(Cl)c4)n2)OC[C@@]3(CF)C(N)=O)C(F)(F)F)cc2cc(Cl)c(C)nc12 [Example 1046]
– | > 500 | > 200 | COc1cc(C(=O)NC[C@@](O)(c2cc3c(c(-c4ccc(OC(F)F)c(F)c4)n2)OC[C@]3(C)C(N)=O)C(F)(F)F)cc2cn(C3CC3)nc12 [Example 919]
– | < 500 | < 200 | COc1cc(C(=O)NC[C@](O)(c2cc3c(c(-c4c(F)cc(Cl)cc4F)n2)OC[C@]3(C)C(N)=O)C(F)(F)F)cc2cn(C3CC3)nc12 [Example 961]

EC50 [1, 3] [nM] | EC50 [2] [nM] | EC50 [1, 4] [nM] | Compound
– | > 500 | > 200 | COc1cc(C(=O)NC[C@](O)(c2cc3c(c(-c4ccc5nn(C(F)F)cc5c4)n2)OC[C@]3(C)C(N)=O)C(F)(F)F)cc2cn(C3CC3)nc12 [Example 938]
– | > 500 | < 200 | COc1cc(C(=O)NC[C@](O)(c2cc3c(c(-c4ccc(C(F)F)s4)n2)OC[C@]3(C)C(N)=O)C(F)(F)F)cc2cn(C3CC3)nc12 [Example 948]
< 200 | < 500 | – | COc1cc(C(=O)NC[C@](O)(c2cc3c(c(-c4ccc(F)cc4)n2)OC[C@]3(C)C(N)=O)C2CCC2)cc2cn(C3CC3)nc12 [Example 708]
– | > 500 | > 200 | COc1cc(C(=O)NC[C@](O)(c2cc3c(c(-c4ccc5cc[nH]c5c4)n2)OC[C@]3(C)C(N)=O)C(F)(F)F)cc2cn(C3CC3)nc12 [Example 970]
– | < 500 | < 200 | COc1cc(C(=O)NCC(O)(c2cc3c(c(-c4cc(F)c(F)c(Cl)c4)n2)OC[C@]3(C)C(N)=O)C(F)(F)F)cc2cn(C3CC3)nc12 (some centres unmarked) [Example 931]
< 200 | < 500 | – | COc1cc(C(=O)NC[C@](O)(c2cc3c(c(-c4csc5c(F)cccc45)n2)OC[C@]3(C)C(N)=O)C2CC2)cc2cn(C(F)F)nc12 [Example 594]
< 200 | > 500 | – | COc1cc(C(=O)NC[C@](O)(c2cc3c(c(-c4cc(Cl)c(F)c(Cl)c4)n2)OC[C@]3(C)C(N)=O)C(F)(F)F)cc2cn(C3(F)CC3)nc12 [Example 671]
< 200 | < 500 | – | COc1cc(C(=O)NC[C@](O)(c2cc3c(c(-c4ccc(Cl)c(F)c4F)n2)OC[C@]3(C)C(N)=O)C2CC2)cc2cn(C3CC3)nc12 [Example 683]
< 200 | < 500 | – | COc1cc(C(=O)NC[C@](O)(c2cc3c(c(-c4ccc5c(c4)OC(F)(F)O5)n2)OC[C@]3(C)C(N)=O)C(F)(F)F)cc2cc(Cl)c(C)nc12 [Example 640]
– | < 500 | < 200 | COc1cc(C(=O)NC[C@](O)(c2cc3c(c(-c4ccc(F)c(Cl)c4)n2)OC[C@@]3(C(N)=O)C(F)F)C(F)(F)F)cc2sc(C3CC3)nc12 [Example 1017]
< 200 | < 500 | – | Cc1nc2c(Cl)cc(C(=O)NC[C@](O)(c3cc4c(c(-c5ccc(F)c(Cl)c5)n3)OC[C@]4(C)C(N)=O)C3CC3)cc2cc1Cl [Example 500]
– | < 500 | < 200 | COc1cc(C(=O)NC[C@](O)(c2cc3c(c(-c4cccc(Br)c4F)n2)OC[C@]3(C)C(N)=O)C2CC2)cc2cn(C(F)F)nc12 [Example 1098]
– | < 500 | < 200 | COc1cc(C(=O)NC[C@](O)(c2cc3c(c(-c4cccc(Br)c4F)n2)OC[C@]3(C)C(N)=O)C2CC2)cc2cn(C3CC3)nc12 [Example 1085]
– | > 500 | < 200 | COc1cc(C(=O)NC[C@](O)(c2cc3c(c(-c4csc5ccccc45)n2)OC[C@]3(C)C(N)=O)C(F)(F)F)cc2cn(C3CC3)nc12 [Example 943]
< 200 | < 500 | – | Cc1cnc2c(OC(F)F)cc(C(=O)NC[C@](O)(c3cc4c(c(-c5ccc(F)c(Cl)c5F)n3)OC[C@]4(C)C(N)=O)C(F)(F)F)cc2c1 [Example 553]
< 200 | < 500 | – | COc1cc(C(=O)NC[C@](O)(c2cc3c(c(-c4ccc5c(c4)OC(F)(F)O5)n2)OC[C@]3(C)C(N)=O)C2CC2)cc2c(F)n(C3CC3)nc12 [Example 650]
– | > 500 | < 200 | C[C@]1(C(N)=O)COc2c1cc([C@@](O)(CNC(=O)c1cc3c(cn1)OC(F)(F)O3)C(F)(F)F)nc2-c1ccc(F)cc1 [Example 1067]
< 200 | < 500 | – | COc1cc(C(=O)NC[C@](O)(c2cc3c(c(-c4ccc(F)c(F)c4Cl)n2)OC[C@]3(C)C(N)=O)C(F)(F)F)cc2cc(Cl)c(C)nc12 [Example 774]
